Assay results published in US7495027B2, “3-aryl-4-hydroxyfuranone compounds and the human and animal health use thereof” (Wyeth, priority 2003, dated 2009).

Assays:
[1] = system: larvae of blowfly, Lucilia sericata; assay: whole plant or invertebrate; conditions: dose rate of 20 ppm, Lucilia sericata larvae on treated filter paper with bovine serum; for % Mortality 24 h: assessed at 24 h; for % Mortality 48 h: assessed at 48 h
Procedure: Comparative Evaluation of the Efficacy of a 3-Aryl-4-hydroxyfuranone Compound Against Blowfly Larvae
In this evaluation, filter paper discs are treated with an acetone solution of test compound and allowed to dry. Bovine serum and newly emerged larvae of blowfly, Lucilia sericata, are added to the treated filter paper. Mortality is assessed at 24 h and 48 h. When more than one evaluation is performed, the data are averaged.

C. elegans = assay: Efficacy against nematodes (C. elegans motility rating); design: key: 0: no effect; 7: reduced movement in 24 h; 8: dead in 24 h; 9: dead in 4 h; conditions: observations at 4 h and 24 h postimmersion
Procedure: Evaluation of the Efficacy of a 3-Aryl-4-Hydroxyfuranone Against Nematodes
In this evaluation, cultures of C. elegans are maintained on E. coli lawns on Nematode Growth Agar at 20° C. New cultures are established twice a week. Nematodes for testing are rinsed from plates using M9 Buffer. […] One μL of this solution is added to each well of a 96 well plate. A mixture of C. elegans in M9 Buffer (100 μL) is added to each well, such that approximately 50 worms of mixed stages (L1, L2, L3, L4 and adults) are present in each well at a final concentration of 100 ppm, 150 ppm or […] of test compound. Concentration of test compound may be varied by gradient dilution of the stock DMSO solution. Observations are made under a dissecting microscope at 4 h and 24 h postimmersion. A rating is based on the motility of the larvae and adults, using the rating system shown below.

Compound: N#Cc1cccc(C2=C(O)C(=Cc3ccc(F)cc3)OC2=O)c1 (mixture of isomers) [R=H, R1=3-CN—C6H4**, R2=4-F—C6H4]
- % Mortality 24 h [1]: 0%
- % Mortality 48 h [1]: 0%

Compound: N#Cc1ccc(-c2ccc(/C=C3\OC(=O)C(c4ccc(Cl)cc4)=C3O)cc2)cc1 [R=H, R1=4-Cl—C6H4, R2=4-(4′-CN-biphenyl)]
- % Mortality 24 h [1]: 0%
- % Mortality 48 h [1]: 0%

Compound: O=C1OC(=Cc2ccc(-c3ccc(Cl)cc3)cc2)C(O)=C1c1cccc(Cl)c1 (mixture of isomers)
- % Mortality 24 h [1]: 0%
- % Mortality 48 h [1]: 0%

Compound: CC(C)(C)c1ccc(-c2ccc(C3=C(O)C(=Cc4ccc(-c5ccccc5)cc4)OC3=O)cc2)cc1
- % Mortality 24 h [1]: 0%
- % Mortality 48 h [1]: 0%

Compound: N#Cc1cccc(C2=C(O)C(=Cc3ccc(Cl)cc3)OC2=O)c1 (mixture of isomers) [R=H, R1=3-CN—C6H4**, R2=4-Cl—C6H4]
- % Mortality 24 h [1]: 0%
- % Mortality 48 h [1]: 0%

Compound: O=C1OC(=Cc2ccc(F)cc2)C(O)=C1c1ccc(C(F)(F)F)cc1 (mixture of isomers) [R=H, R1=4-CF3—C6H4**, R2=4-F—C6H4]
- % Mortality 24 h [1]: 100%
- % Mortality 48 h [1]: 100%

Compound: N#Cc1cccc(C2=C(O)C(=Cc3ccc(C(F)(F)F)cc3)OC2=O)c1 (mixture of isomers) [R=H, R1=3-CN—C6H4**, R2=4-CF3—C6H4]
- % Mortality 24 h [1]: 0%
- % Mortality 48 h [1]: 0%

Compound: N#Cc1ccc(C=C2OC(=O)C(c3ccc(C(F)(F)F)cc3)=C2O)cc1 (mixture of isomers) [R=H, R1=4-CF3—C6H4**, R2=4-CN—C6H4]
- % Mortality 24 h [1]: 100%
- % Mortality 48 h [1]: 100%

Compound: N#Cc1ccc(-c2ccc(/C=C3\OC(=O)C(c4ccc(Cl)cc4)=C3O)cc2)cc1 [R=H, R1=4-Cl—C6H4*, R2=4-(4′-CN-biphenyl)]
- % Mortality 24 h [1]: 0%
- % Mortality 48 h [1]: 100%

Compound: N#Cc1ccc(C2=C(O)/C(=C/c3ccc(-c4ccc(C#N)cc4)cc3)OC2=O)cc1
- % Mortality 24 h [1]: 0%
- % Mortality 48 h [1]: 0%

Compound: N#Cc1ccc(-c2ccc(C=C3OC(=O)C(c4cccc(C(F)(F)F)c4)=C3O)cc2)cc1 (mixture of isomers)
- % Mortality 24 h [1]: 0%
- % Mortality 48 h [1]: 0%

Compound: N#Cc1ccc(C=C2OC(=O)C(c3ccc(-c4ccc(Cl)cc4)cc3)=C2O)cc1 (mixture of isomers)
- % Mortality 24 h [1]: 0%
- % Mortality 48 h [1]: 0%

Compound: COC1=C(c2cccc(C(F)(F)F)c2)C(=O)O/C1=C\c1ccccc1 [R=CH3, R1=3-CF3—C6H4, R2=C6H5]
- % Mortality 24 h [1]: 0%
- % Mortality 48 h [1]: 0%

Compound: O=C1OC(=Cc2ccc(-c3ccc(Cl)cc3)cc2)C(O)=C1c1cccc(C(F)(F)F)c1 (mixture of isomers)
- % Mortality 24 h [1]: 0%
- % Mortality 48 h [1]: 0%

Compound: O=C1OC(=Cc2ccc(F)cc2)C(O)=C1c1cccc(Cl)c1 (mixture of isomers) [R=H, R1=3-Cl—C6H4**, R2=4-F—C6H4]
- % Mortality 24 h [1]: 0%
- % Mortality 48 h [1]: 0%

Compound: O=C1OC(=Cc2ccc(-c3ccccc3CO)cc2)C(O)=C1c1ccccc1CO
- % Mortality 24 h [1]: 0%
- % Mortality 48 h [1]: 0%

Compound: O=C1OC(=Cc2ccc(F)cc2)C(O)=C1c1ccc(F)cc1 (mixture of isomers) [R=H, R1=4-F—C6H4**, R2=4-F—C6H4]
- % Mortality 24 h [1]: 0%
- % Mortality 48 h [1]: 0%

Compound: N#Cc1ccc(C2=C(O)C(=Cc3ccc(-c4ccc(C(F)(F)F)cc4)cc3)OC2=O)cc1 (mixture of isomers)
- % Mortality 24 h [1]: 0%
- % Mortality 48 h [1]: 25%

Compound: N#Cc1ccc(C=C2OC(=O)C(c3cccc(Cl)c3)=C2O)cc1 (mixture of isomers) [R=H, R1=3-Cl—C6H4**, R2=4-CN—C6H4]
- % Mortality 24 h [1]: 0%
- % Mortality 48 h [1]: 0%

Compound: O=C1OC(=Cc2ccc(-c3ccc(Cl)cc3)cc2)C(O)=C1c1ccc(F)cc1 (mixture of isomers)
- % Mortality 24 h [1]: 0%
- % Mortality 48 h [1]: 0%

Compound: N#Cc1ccc(C=C2OC(=O)C(c3ccc(Cl)cc3)=C2O)cc1 (mixture of isomers) [R=H, R1=4-Cl—C6H4**, R2=4-CN—C6H4]
- % Mortality 24 h [1]: 0%
- % Mortality 48 h [1]: 90%

Compound: O=C1OC(=Cc2ccc(-c3ccc(Cl)cc3)cc2)C(O)=C1c1ccc(C(F)(F)F)cc1 (mixture of isomers) [listing 1 of 2 here]
- % Mortality 24 h [1]: 0%
- % Mortality 48 h [1]: 65%

Compound: O=C1OC(=Cc2ccc(Cl)cc2)C(O)=C1c1ccc(C(F)(F)F)cc1 (mixture of isomers) [R=H, R1=4-CF3—C6H4**, R2=4-Cl—C6H4]
- % Mortality 24 h [1]: 100%
- % Mortality 48 h [1]: 100%

Compound: COc1ccc(C=C2OC(=O)C(c3ccc(Cl)cc3)=C2O)cc1 [R=H, R1=4-Cl—C6H4, R2=4-OMe—C6H4]
- % Mortality 24 h [1]: 0%
- % Mortality 48 h [1]: 0%

Compound: O=C1OC(=Cc2cccc(Cl)c2)C(O)=C1c1ccc(Cl)cc1 (mixture of isomers) [R=H, R1=4-Cl—C6H4**, R2=3-Cl—C6H4]
- % Mortality 24 h [1]: 0%
- % Mortality 48 h [1]: 0%

Compound: N#Cc1ccc(C2=C(O)C(=Cc3ccc(F)cc3)OC2=O)cc1 (mixture of isomers) [R=H, R1=4-CN—C6H4**, R2=4-F—C6H4]
- % Mortality 24 h [1]: 0%
- % Mortality 48 h [1]: 0%

Compound: N#Cc1ccc(C2=C(O)C(=Cc3ccc(Cl)cc3)OC2=O)cc1 (mixture of isomers) [R=H, R1=4-CN—C6H4**, R2=4-Cl—C6H4]
- % Mortality 24 h [1]: 25%
- % Mortality 48 h [1]: 100%

Compound: O=C1OC(=Cc2ccccc2C(F)(F)F)C(O)=C1c1ccc(Cl)cc1 (mixture of isomers) [R=H, R1=4-Cl—C6H4**, R2=2-CF3—C6H4]
- % Mortality 24 h [1]: 10%
- % Mortality 48 h [1]: 10%

Compound: O=C1O/C(=C\c2ccc(-c3cccc(CO)c3)cc2)C(O)=C1c1cccc(CO)c1
- % Mortality 24 h [1]: 0%
- % Mortality 48 h [1]: 0%

Compound: N#Cc1ccc(C=C2OC(=O)C(c3cccc(C#N)c3)=C2O)cc1 (mixture of isomers) [R=H, R1=3-CN—C6H4**, R2=4-CN—C6H4]
- % Mortality 24 h [1]: 0%
- % Mortality 48 h [1]: 0%

Compound: O=C1OC(=Cc2ccc(F)cc2)C(O)=C1c1cccc(C(F)(F)F)c1 (mixture of isomers) [R=H, R1=3-CF3—C6H4**, R2=4-F—C6H4]
- % Mortality 24 h [1]: 100%
- % Mortality 48 h [1]: 100%

Compound: O=C1OC(=Cc2ccc(C(F)(F)F)cc2)C(O)=C1c1ccc(C(F)(F)F)cc1 (mixture of isomers) [R=H, R1=4-CF3—C6H4**, R2=4-CF3—C6H4]
- % Mortality 24 h [1]: 100%
- % Mortality 48 h [1]: 100%

Compound: N#Cc1ccc(-c2ccc(C=C3OC(=O)C(c4ccc(C(F)(F)F)cc4)=C3O)cc2)cc1 (mixture of isomers)
- % Mortality 24 h [1]: 0%
- % Mortality 48 h [1]: 0%

Compound: O=C1OC(=Cc2ccc(Cl)cc2)C(O)=C1c1ccc(-c2ccc(Cl)cc2)cc1 (mixture of isomers)
- % Mortality 24 h [1]: 0%
- % Mortality 48 h [1]: 0%

Compound: N#Cc1cccc(C2=C(O)C(=Cc3ccc(-c4ccc(Cl)cc4)cc3)OC2=O)c1 (mixture of isomers)
- % Mortality 24 h [1]: 0%
- % Mortality 48 h [1]: 0%

Compound: O=C1O/C(=C\c2ccc(N3CCN(c4ccccc4Cl)CC3)c(Cl)c2)C(O)=C1c1cc(Cl)cc(Cl)c1
- % Mortality 24 h [1]: 0%
- % Mortality 48 h [1]: 0%

Compound: O=C1OC(=Cc2ccc(-c3ccc(Cl)cc3)cc2)C(O)=C1c1ccc(C(F)(F)F)cc1 (mixture of isomers) [listing 2 of 2 here]
- Rating (C. elegans; dose 100 ppm): 9

Compound: O=C1OC(=Cc2ccc(-c3cccc(CO)c3)cc2)C(O)=C1c1cccc(CO)c1
- Rating (C. elegans; dose 150 ppm): 0

Compound: COc1ccccc1-c1ccc(C=C2OC(=O)C(c3cc(Cl)cc(Cl)c3)=C2O)cc1C
- Rating (C. elegans; dose 150 ppm): 0

Compound: O=C1O/C(=C\c2ccc(N3CCOCC3)c3ccccc23)C(O)=C1c1cc(Cl)cc(Cl)c1
- Rating (C. elegans; dose 150 ppm): 0

Compound: Cc1c(C=C2OC(=O)C(c3ccc(OC(F)(F)F)cc3)=C2O)cnn1-c1ccccc1 (mixture of isomers)
- Rating (C. elegans; dose 100 ppm): 0

Compound: O=C1O/C(=C\c2ccc(-c3cc(Cl)cc(Cl)c3)cc2)C(O)=C1c1cc(Cl)cc(Cl)c1
- Rating (C. elegans; dose 150 ppm): 7

Compound: CN(C)c1ccc(/C=C2\OC(=O)C(c3ccc(Cl)cc3)=C2O)c2ccccc12
- Rating (C. elegans; dose 150 ppm): 0

Compound: O=C1OC(=Cc2ccc(-c3ccc(Cl)s3)cc2)C(O)=C1c1ccc(OC(F)(F)F)cc1 (mixture of isomers)
- Rating (C. elegans; dose 100 ppm): 9

Compound: N#Cc1ccc(C2=C(O)C(=Cc3ccc(Cl)cc3)OC2=O)cc1 [R=H; R1=4-CN—C6H4**; R2=4-Cl—C6H4]
- Rating (C. elegans; dose 150 ppm): 9

Compound: O=C1OC(=Cc2cnccc2-c2ccc(OC(F)(F)F)cc2)C(O)=C1c1ccc(OC(F)(F)F)cc1 (mixture of isomers)
- Rating (C. elegans; dose 100 ppm): 9

Compound: O=C1O/C(=C\c2ccccc2-c2ccc(Cl)cc2)C(O)=C1c1ccc(Cl)cc1 [R=H; R1=4-Cl—C6H4; R2=2-(4′-Cl-biphenyl)]
- Rating (C. elegans; dose 150 ppm): 0

Compound: CCCOc1ccc(C=C2OC(=O)C(c3ccc(OC(F)(F)F)cc3)=C2O)cc1 (mixture of isomers)
- Rating (C. elegans; dose 100 ppm): 0

Compound: O=C1OC(=Cc2cnccc2-c2ccc(Cl)cc2)C(O)=C1c1ccc(OC(F)(F)F)cc1 (mixture of isomers)
- Rating (C. elegans; dose 100 ppm): 9

Compound: COc1ccccc1-c1ccc(/C=C2\OC(=O)C(c3cc(Cl)cc(Cl)c3)=C2O)cc1OC
- Rating (C. elegans; dose 150 ppm): 0

Compound: Cc1cc(/C=C2\OC(=O)C(c3cc(Cl)cc(Cl)c3)=C2O)ccc1-c1ccccc1Cl
- Rating (C. elegans; dose 150 ppm): 7

Compound: N#Cc1ccc(C2=C(O)C(=Cc3ccc(C(F)(F)F)cc3)OC2=O)cc1 (mixture of isomers) [R=H; R1=4-CN—C6H4**; R2=4-CF3-C6H4]
- Rating (C. elegans; dose 100 ppm): 9
